Paper PMC11422593, “Structural and biochemical analysis of highly similar HLA-B allotypes differentially associated with type 1 diabetes” (The Journal of Biological Chemistry, 2024)
Read-outs that look alike come from different tables or passages of the source. No end group written: not given here.

How the values were obtained:
HLA-B∗39:06 [1] = biological target: T1, HLA-B∗39:06 (Homo sapiens, UniProt P01889, A182T/A93T/A95T/C349S/D138N/D201E/E176V/E187T/E204Q/K202T/L119W/Q94N/R155S/R180L/S121T/Y140F/Y91C); assay: biochemical; type: binding
HLA-B∗39:01 = biological target: T2, HLA-B∗39:01 (Homo sapiens, UniProt P01889, A182T/A93T/A95T/C349S/D138N/D201E/E176V/E187T/E204Q/K202T/Q94N/R155S/R180L/S121R/Y140F/Y91C); assay: biochemical; type: binding
T2 construct: made in house

HLA-B∗38:01 [2] = biological target: T3, HLA-B∗38:01 (Homo sapiens, UniProt P01889, A182T/A93T/A95T/C349S/D138N/D201E/D98Y/E176V/E187T/E204Q/G107R/K202T/L105A/N104I/Q94N/R106L/R155S/R180L/S101N/S121R/Y140F/Y91C); assay: biochemical
HLA-B∗39:06 [3] = biological target: T1, HLA-B∗39:06; conditions: cited from earlier work
Description: We previously reported the sequences of peptides endogenously bound to and eluted from HLA-B∗39:06 molecules purified from the human lymphoblastoid cell line C1R/HLA-B∗39:06 ([26]). […] Our strategy was based on the prior seminal observations of Ploegh et al. ([27]) that the incubation of cells at 26 °C allows for empty class I MHC molecules to reach the cell surface, and that the MHC can be stabilized if a binding peptide is also included. […] Assays to quantitatively measure peptide binding to purified B∗39:06 and B∗39:01 molecules were based on the inhibition of binding of a high-affinity radiolabeled peptide and performed as described ([26]).

[4] = biological target: HLA-B∗38:01 (purified MHC molecules) (human); assay: radioligand binding
[5] = biological target: HLA-B∗39:06 (purified MHC molecules) (human); assay: radioligand binding
[6] = biological target: HLA-B∗39:01 (purified MHC molecules) (human); assay: radioligand binding
HLA-B∗38:01 [7] = biological target: T3, HLA-B∗38:01; set-up: made in house; conditions: read-out: IC50 of the probe peptide (HLA-B∗38:01 assay); cited from earlier work
[8] = biological target: HLA-B∗38:01 (purified MHC molecules) (human); assay: radioligand binding; cell-free competitive assay as for B∗39:06, with purified HLA-B∗38:01 and radiolabelled … as the probe

Row | Molecule | IC50 (HLA-B∗39:06 [1]) [nM] | IC50 (HLA-B∗39:01) [nM] | IC50 (HLA-B∗38:01 [2]) [nM] | IC50 [5] [nM] | IC50 [6] [nM] | other results
1 | CC(C)C[C@H](NC(=O)[C@H](CS)NC(=O)[C@@H]1CCCN1C(=O)[C@H](CO)NC(=O)[C@H](CO)NC(=O)[C@H](Cc1c[nH]cn1)NC(=O)[C@@H](N)CC(N)=O)C(=O)N[C@@H](CCC(=O)O)C(=O)N[C@@H](CCC(N)=O)C(=O)N[C@@H](Cc1ccccc1)C(=O)O | > 50000 | 25700 |  |  |  | 
2 | CC(C)C[C@H](NC(=O)[C@H](C)NC(=O)[C@H](CC(N)=O)NC(=O)[C@H](CCC(=O)O)NC(=O)[C@@H](NC(=O)[C@H](C)NC(=O)[C@@H](NC(=O)[C@H](Cc1c[nH]cn1)NC(=O)[C@@H](N)CO)C(C)C)C(C)C)C(=O)O [SHVAVENAL, reference compound] | 696 | 11 | 321 |  |  | 
3 | DHAVVVGV |  |  |  |  |  | rank of binding to HLA-B∗39:06 among the candidate endogenous ligands (HLA-B∗39:06 [3]; cell-free competitive assay, purified HLA-B∗39:06 and high-affinity radiolabeled ligand, also data not shown): by far the weakest HLA-B∗39:06 binder among the candidates
4 | FLFLFAVG | 405 | 17900 | > 50000 |  |  | 
5 | FRLLCALTSL | 7.4 | 290 | 2760 |  |  | 
6 | FRYQGHVGA [Homo sapiens proteasome subunit 127–135, reference compound] |  |  |  |  |  | IC50 (HLA-B∗39:06 [3]; unlabeled version of the radiolabeled probe, read-out: IC50 of the probe peptide for B∗39:06): 24 nM
7 | MRLLPLLA | 41 | 62 | 44500 |  |  | 
8 | MRLLPLLA (human insulin, position 5, 8mer) (peptide) |  |  |  | 41 | 62 | IC50 [4]: 44500 nM
9 | MRLLPLLAL [MRLLPLLAL] | 677 | 14 | 850 |  |  | 
10 | NRVMLPKA | 41 | 85 |  |  |  | 
11 | NRVMLPKA (NLRP2, position 320, 8mer) (peptide) |  |  |  | 41 | 85 | 
12 | NRVMLPKAA | 14 | 35 | > 50000 |  |  | 
13 | SASIPLTVVA | 310 | 30900 | > 50000 |  |  | 
14 | SHLVEALYL | 35600 | 5250 | 10 |  |  | 
15 | THFPHQVIL | 2600 | 73 | 142 |  |  | 
16 | TNLFLFLFAV | 354 | 3950 | 6690 |  |  | 
17 | WMRLLPLLA | 155 | 865 | > 50000 |  |  | 
18 | YHFLQIPT | 151 | 660 | 9750 |  |  | 
19 | YHFLQIPT (human G6Pase 2, position 307) (peptide) |  |  |  | 151 | 660 | IC50 [4]: 9750 nM
20 | YHIPGDTLF |  |  |  |  |  | IC50 (HLA-B∗38:01 [7]): 1.4 nM
21 | … (DDX3X, position 2) (peptide) |  |  |  | 696 | 11 | IC50 [4]: 321 nM
22 | … (Variola virus RNA helicase 346–354) (peptide) |  |  |  |  |  | IC50 [4]: 1.4 nM
23 | … (human insulin, position 5, 9mer) (peptide) |  |  |  | 677 | 14 | IC50 [4]: 850 nM
24 | FRYQGHVGA (not fully specified) [… (Homo sapiens proteasome subunit 127–135)] |  |  |  | 24 |  | 
25 | SASIPLTVVA [… (human G6Pase 2, position 328)] |  |  |  | 310 | 30900 | IC50 [8]: > 50000 nM
26 | FLFLFAVG [FLFLFAVG (human G6Pase 2, position 213)] |  |  |  | 405 | 17900 | IC50 [8]: > 50000 nM
27 | NRVMLPKAA [… (NLRP2 320 to 328), free peptide] |  |  |  | 14 | 35 | IC50 [8]: > 50000 nM
28 | WMRLLPLLA [… (human insulin, position 4)] |  |  |  | 155 | 865 | IC50 [8]: > 50000 nM
